Reference: patent US10829481B2, “Benzimidazole derivatives as modulators of ROR-gamma” (Vitae Pharmaceuticals, LLC, priority 2016, dated 2020)
Each block holds one compound with its values, some of them ahead of it.

What was measured:
[1] = target: recombinant RORγ Ligand Binding Domain (LBD) protein (Homo sapiens (Human), UniProt P51449); assay: Radio-Ligand RORγ Binding Assay (Assay 1); settings: competition with 25-hydroxy [26,27-3H]-cholesterol, SPA
Method in brief: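 His-GST-fused RORγ ligand-binding domain (24 nM solution) competed between compounds and tritiated 25-hydroxycholesterol (8.6 nM solution), read by SPA after brief rt incubations in pH 7.4 HEPES/glycerol/detergent buffer. Four-parameter curve fitting gave IC50 at inflection, converted to Ki using radioligand concentration and KD.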

[2] = target: full-length RORγt in Jurkat cells (Homo sapiens (Human), UniProt P51449); assay: RORγt 5×RORE Assay in Jurkat Cells (Assay 2); assay type: cell-based; settings: 5×RORE Nanoluc luciferase reporter
Chain of full-length RORγt in Jurkat cells (P51449 other isoform, or with tags, fused parts or gaps): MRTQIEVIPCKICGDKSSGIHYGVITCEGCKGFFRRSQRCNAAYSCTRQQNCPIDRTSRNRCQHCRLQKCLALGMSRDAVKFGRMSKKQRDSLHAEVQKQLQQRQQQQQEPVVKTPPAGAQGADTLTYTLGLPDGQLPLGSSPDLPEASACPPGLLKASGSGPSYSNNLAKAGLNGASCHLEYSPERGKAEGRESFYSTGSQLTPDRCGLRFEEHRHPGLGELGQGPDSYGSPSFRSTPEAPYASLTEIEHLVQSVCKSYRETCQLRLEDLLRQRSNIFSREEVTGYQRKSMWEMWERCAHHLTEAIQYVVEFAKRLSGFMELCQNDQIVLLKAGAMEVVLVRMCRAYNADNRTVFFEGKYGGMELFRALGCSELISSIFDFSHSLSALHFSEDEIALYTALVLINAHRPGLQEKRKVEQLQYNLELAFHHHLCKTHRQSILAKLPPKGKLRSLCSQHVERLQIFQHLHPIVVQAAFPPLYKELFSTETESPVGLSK

Chain of recombinant RORγ Ligand Binding Domain (LBD) protein (P51449 269-508): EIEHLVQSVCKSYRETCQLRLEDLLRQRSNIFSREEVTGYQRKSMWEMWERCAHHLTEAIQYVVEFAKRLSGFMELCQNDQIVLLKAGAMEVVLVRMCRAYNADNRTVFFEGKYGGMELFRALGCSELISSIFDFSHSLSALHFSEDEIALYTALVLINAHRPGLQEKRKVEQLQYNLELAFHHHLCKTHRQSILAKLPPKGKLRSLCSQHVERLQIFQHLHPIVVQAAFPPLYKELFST

Compound: CCS(=O)(=O)c1ccc(CNC(=O)c2ccc3c(c2)nc(C(F)(F)F)n3Cc2cc(OC)cc(OC)c2)cc1 [I-82, 1-(3,5-dimethoxybenzyl)-N-(4-(ethylsulfonyl)benzyl)-2-(trifluoromethyl)-1H-benzo[d]imidazole-5-carboxamide]
Ki [1]: < 100 nM
IC50 [2]: > 1000 nM

Compound: CCS(=O)(=O)c1ccc(CNC(=O)c2ccc3c(c2)nc(C(F)(F)F)n3Cc2ccc(OC)c(C#N)c2)cc1 [I-83, 1-(3-cyano-4-methoxybenzyl)-N-(4-(ethylsulfonyl)benzyl)-2-(trifluoromethyl)-1H-benzo[d]imidazole-5-carboxamide]
Ki [1]: < 100 nM
IC50 [2]: 100 to 1000 nM

Compound: CCS(=O)(=O)c1ccc(CNC(=O)c2ccc3c(c2)nc(C(F)(F)F)n3Cc2ccc(OC(F)(F)F)cc2)cc1 [I-84, N-(4-(ethylsulfonyl)benzyl)-1-(4-(trifluoromethoxy)benzyl)-2-(trifluoromethyl)-1H-benzo[d]imidazole-5-carboxamide]
Ki [1]: < 100 nM
IC50 [2]: 100 to 1000 nM

Compound: CCS(=O)(=O)c1ccc(CNC(=O)c2ccc3c(c2)nc(C(F)(F)F)n3Cc2ccc(C#N)cc2)cc1 [I-85, 1-(4-cyanobenzyl)-N-(4-(ethylsulfonyl)benzyl)-2-(trifluoromethyl)-1H-benzo[d]imidazole-5-carboxamide]
Ki [1]: < 100 nM
IC50 [2]: > 1000 nM

Compound: CCS(=O)(=O)c1ccc(CNC(=O)c2ccc3c(c2)nc(C(F)(F)F)n3Cc2cccc(OC)c2)cc1 [I-88, N-(4-(ethylsulfonyl)benzyl)-1-(3-methoxybenzyl)-2-(trifluoromethyl)-1H-benzo[d]imidazole-5-carboxamide]
Ki [1]: < 100 nM
IC50 [2]: < 100 nM

Compound: CCS(=O)(=O)c1ccc(CNC(=O)c2ccc3c(c2)nc(C(F)(F)F)n3Cc2ccnc(OC)c2)cc1 [I-89, N-(4-(ethylsulfonyl)benzyl)-1-((2-methoxypyridin-4-yl)methyl)-2-(trifluoromethyl)-1H-benzo[d]imidazole-5-carboxamide]
Ki [1]: < 100 nM
IC50 [2]: 100 to 1000 nM

Compound: CCS(=O)(=O)c1ccc(CNC(=O)c2ccc3c(c2)nc(C(F)(F)F)n3Cc2cccc(C#N)c2)cc1 [I-90, 1-(3-cyanobenzyl)-N-(4-(ethylsulfonyl)benzyl)-2-(trifluoromethyl)-1H-benzo[d]imidazole-5-carboxamide]
Ki [1]: < 100 nM
IC50 [2]: < 100 nM

Compound: CCS(=O)(=O)c1ccc(CNC(=O)c2ccc3c(c2)nc(C(F)(F)F)n3C2(c3cccc(C#N)c3)CC2)cc1 [I-92, 1-(1-(3-cyanophenyl)cyclopropyl)-N-(4-(ethylsulfonyl)benzyl)-2-(trifluoromethyl)-1H-benzo[d]imidazole-5-carboxamide]
Ki [1]: < 100 nM
IC50 [2]: 100 to 1000 nM

Compound: CCS(=O)(=O)c1ccc(CNC(=O)c2ccc3c(c2)nc(C(F)(F)F)n3[C@@H](C)c2cccc(C#N)c2)cc1 [I-93.1, (S)-1-(1-(3-cyanophenyl)ethyl)-N-(4-(ethylsulfonyl)benzyl)-2-(trifluoromethyl)-1H-benzo[d]imidazole-5-carboxamide]
Ki [1]: < 100 nM
IC50 [2]: < 100 nM

Compound: CCS(=O)(=O)c1ccc(CNC(=O)c2ccc3c(c2)nc(C(F)(F)F)n3Cc2cc(C#N)ccc2F)cc1 [I-94, 1-(5-cyano-2-fluorobenzyl)-N-(4-(ethylsulfonyl)benzyl)-2-(trifluoromethyl)-1H-benzo[d]imidazole-5-carboxamide]
Ki [1]: < 100 nM
IC50 [2]: 100 to 1000 nM

Compound: CCS(=O)(=O)c1ccc(CNC(=O)c2ccc3c(c2)nc(C(F)(F)F)n3Cc2cccc3[nH]ncc23)cc1 [I-97, 1-((1H-indazol-4-yl)methyl)-N-(4-(ethylsulfonyl)benzyl)-2-(trifluoromethyl)-1H-benzo[d]imidazole-5-carboxamide]
Ki [1]: < 100 nM
IC50 [2]: < 100 nM

Compound: CCS(=O)(=O)c1ccc(CNC(=O)c2ccc3c(c2)nc(C(F)(F)F)n3Cc2cccc(C(=O)OC)c2)cc1 [I-99, methyl 3-((5-((4-(ethylsulfonyl)benzyl)carbamoyl)-2-(trifluoromethyl)-1H-benzo[d]imidazol-1-yl)methyl)benzoate]
Ki [1]: < 100 nM
IC50 [2]: 100 to 1000 nM

Compound: CCS(=O)(=O)c1ccc(CNC(=O)c2ccc3c(c2)nc(C(F)(F)F)n3Cc2cncc3[nH]ccc23)cc1 [I-100, 1-((1H-pyrrolo[2,3-c]pyridin-4-yl)methyl)-N-(4-(ethylsulfonyl)benzyl)-2-(trifluoromethyl)-1H-benzo[d]imidazole-5-carboxamide]
Ki [1]: < 100 nM
IC50 [2]: 100 to 1000 nM

Compound: CCS(=O)(=O)c1ccc([C@H](CO)NC(=O)c2ccc3c(c2)nc(C2CC2)n3Cc2cccc3c2OC(C)(C)C3)cc1 [I-101, (R)-2-cyclopropyl-1-((2,2-dimethyl-2,3-dihydrobenzofuran-7-yl)methyl)-N-(1-(4-(ethylsulfonyl)phenyl)-2-hydroxyethyl)-1H-benzo[d]imidazole-5-carboxamide]
Ki [1]: < 100 nM
IC50 [2]: > 1000 nM

Compound: CCS(=O)(=O)c1ccc([C@H](CO)NC(=O)c2ccc3c(c2)nc(C2CC2)n3Cc2cccc3c2OCC3)cc1 [I-102, (R)-2-cyclopropyl-1-((2,3-dihydrobenzofuran-7-yl)methyl)-N-(1-(4-(ethylsulfonyl)phenyl)-2-hydroxyethyl)-1H-benzo[d]imidazole-5-carboxamide]
Ki [1]: < 100 nM
IC50 [2]: < 100 nM

Compound: CCS(=O)(=O)c1ccc(CNC(=O)c2ccc3c(c2)nc(C2CC2)n3Cc2cc(OC)cc(OC)c2)cc1 [I-103, 2-cyclopropyl-1-(3,5-dimethoxybenzyl)-N-(4-(ethylsulfonyl)benzyl)-1H-benzo[d]imidazole-5-carboxamide]
Ki [1]: < 100 nM
IC50 [2]: 100 to 1000 nM

Compound: CCS(=O)(=O)c1ccc(CNC(=O)c2ccc3c(c2)nc(C2CC2)n3Cc2ccc(OC(F)(F)F)cc2)cc1 [I-104, 2-cyclopropyl-N-(4-(ethylsulfonyl)benzyl)-1-(4-(trifluoromethoxy)benzyl)-1H-benzo[d]imidazole-5-carboxamide]
Ki [1]: < 100 nM
IC50 [2]: > 1000 nM

Results, then the compound that gave them:

Ki [1]: < 100 nM
IC50 [2]: < 100 nM
Compound: COC(=O)CS(=O)(=O)N1CCC(CNC(=O)c2ccc3c(c2)nc(C(F)(F)F)n3Cc2cccc3c2OC(F)(F)O3)CC1 [I-74, methyl 2-((4-((1-((2,2-difluorobenzo[d][1,3]dioxol-4-yl)methyl)-2-(trifluoromethyl)-1H-benzo[d]imidazole-5-carboxamido)methyl)piperidin-1-yl)sulfonyl)acetate]

Ki [1]: < 100 nM
IC50 [2]: < 100 nM
Compound: CNC(=O)CS(=O)(=O)N1CCC(CNC(=O)c2ccc3c(c2)nc(C(F)(F)F)n3Cc2cccc3c2OC(F)(F)O3)CC1 [I-75, 1-((2,2-difluorobenzo[d][1,3]dioxol-4-yl)methyl)-N-((1-((2-(methylamino)-2-oxoethyl)sulfonyl)piperidin-4-yl)methyl)-2-(trifluoromethyl)-1H-benzo[d]imidazole-5-carboxamide]

Ki [1]: < 100 nM
IC50 [2]: < 100 nM
Compound: COC(=O)C(NC(=O)c1ccc2c(c1)nc(C(F)(F)F)n2Cc1cccc2c1OC(F)(F)O2)C1CCN(S(C)(=O)=O)CC1 (stereo not drawn) [I-76, methyl 2-(1-((2,2-difluorobenzo[d][1,3]dioxol-4-yl)methyl)-2-(trifluoromethyl)-1H-benzo[d]imidazole-5-carboxamido)-2-(1-(methylsulfonyl)piperidin-4-yl)acetate]

Ki [1]: < 100 nM
IC50 [2]: < 100 nM
Compound: CNS(=O)(=O)N1CCC(CNC(=O)c2ccc3c(c2)nc(C(F)(F)F)n3Cc2cccc3c2OC(F)(F)O3)CC1 [I-77, 1-((2,2-difluorobenzo[d][1,3]dioxol-4-yl)methyl)-N-((1-(N-methylsulfamoyl)piperidin-4-yl)methyl)-2-(trifluoromethyl)-1H-benzo[d]imidazole-5-carboxamide]

Ki [1]: < 100 nM
IC50 [2]: < 100 nM
Compound: NC(=O)CS(=O)(=O)N1CCC(CNC(=O)c2ccc3c(c2)nc(C(F)(F)F)n3Cc2cccc3c2OC(F)(F)O3)CC1 [I-78, N-((1-((2-amino-2-oxoethyl)sulfonyl)piperidin-4-yl)methyl)-1-((2,2-difluorobenzo[d][1,3]dioxol-4-yl)methyl)-2-(trifluoromethyl)-1H-benzo[d]imidazole-5-carboxamide]

Ki [1]: < 100 nM
IC50 [2]: 100 to 1000 nM
Compound: CNC(=O)CS(=O)(=O)N1CCC(CNC(=O)c2ccc3c(c2)nc(C2CC2)n3Cc2cccc3c2OC(F)(F)O3)CC1 [I-79, 2-cyclopropyl-1-((2,2-difluorobenzo[d][1,3]dioxol-4-yl)methyl)-N-((1-((2-(methylamino)-2-oxoethyl)sulfonyl)piperidin-4-yl)methyl)-1H-benzo[d]imidazole-5-carboxamide]

Ki [1]: < 100 nM
IC50 [2]: 100 to 1000 nM
Compound: CCS(=O)(=O)c1ccc([C@H](CO)NC(=O)c2ccc3c(c2)nc(C(F)(F)F)n3Cc2cccc3c2OCC3)cc1 [I-80, (R)-1-((2,3-dihydrobenzofuran-7-yl)methyl)-N-(1-(4-(ethylsulfonyl)phenyl)-2-hydroxyethyl)-2-(trifluoromethyl)-1H-benzo[d]imidazole-5-carboxamide]

Ki [1]: < 100 nM
IC50 [2]: < 100 nM
Compound: CCS(=O)(=O)c1ccc([C@H](CO)NC(=O)c2ccc3c(c2)nc(C(F)(F)F)n3Cc2cccc3c2OCO3)cc1 [I-81, (R)-1-(benzo[d][1,3]dioxol-4-ylmethyl)-N-(1-(4-(ethylsulfonyl)phenyl)-2-hydroxyethyl)-2-(trifluoromethyl)-1H-benzo[d]imidazole-5-carboxamide]

Ki [1]: < 100 nM
IC50 [2]: < 100 nM
Compound: CCS(=O)(=O)c1ccc(CNC(=O)c2ccc3c(c2)nc(C(F)(F)F)n3Cc2cccc3occc23)cc1 [I-95, 1-(benzofuran-4-ylmethyl)-N-(4-(ethylsulfonyl)benzyl)-2-(trifluoromethyl)-1H-benzo[d]imidazole-5-carboxamide]

Ki [1]: < 100 nM
IC50 [2]: < 100 nM
Compound: CCS(=O)(=O)c1ccc(CNC(=O)c2ccc3c(c2)nc(C(F)(F)F)n3Cc2cccc3c2OCO3)cc1 [I-98, 1-(benzo[d][1,3]dioxol-4-ylmethyl)-N-(4-(ethylsulfonyl)benzyl)-2-(trifluoromethyl)-1H-benzo[d]imidazole-5-carboxamide]
